Source: patent US12600714B2, “Substituted pyrazinecarboxamide compounds for treating diseases related to EGFR mutation” (WIGEN BIOMEDICINE TECHNOLOGY (SHANGHAI) CO., LTD., priority 2020, dated 2026)

Assays:
[1] = tested on: PC9 cells with EGFR Del19/T790M/C797S overexpression; experiment: In vivo pharmacodynamic study, mouse PC9 (EGFR Del19/T790M/C797S) subcutaneous xenograft tumor model; parameters: species or system BALB/c nude mice; conditions: intragastric once daily, day 28, PC9 (EGFR Del19/T790M/C797S) xenograft
Procedure: In Vivo Pharmacodynamic Study—Mouse PC9(EGFR Del19/T790M/C797S) Subcutaneous Xenograft Tumor Model
(§1) BALB/c nude mice were grafted subcutaneously on the left dorsum with 5×10^6 PC9 cells with EGFR Del19/T790M/C797S overexpression. After the tumor grew to 100-150 mm^3, the mice were randomly divided into the following groups for intragastric administration once daily: group 1: vehicle control; group 2: compound 511 (60 mg/kg); and group 3: compound 511 (80 mg/kg). The tumor volume was measured twice weekly and at the end of treatment. Tumor growth inhibition of the compound was calculated according to the following equation: tumor growth inhibition (TGI)=1−(tumor volume on day 28 in treatment group−tumor volume on day 1 in treatment group)/(tumor volume on day 28 in vehicle control group−tumor volume on day 1 in treatment group).

A431 (EGFR WT) cells = experiment: Antiproliferative activity against A431 (EGFR WT) cells, Cell Titer Glow; assay type: cell-based; conditions: Homo sapiens, A-431, 72 h; three days after addition of compounds; read-out: Antiproliferative activity A431 wild-type (WT) IC50
Summary of the method: (§2)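 Cells seeded (3000 Ba/F3 del19/T790M/C797S or 2000 A431 per well), compounds added after one day, serially diluted up to 500 nM for Ba/F3 and up to 10 μM for A431. Growth read by Cell Titer Glow after 3 days; IC50 from % growth inhibition.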

[2] = tested on: H1975 cells carrying EGFR T790M mutation; experiment: In vivo pharmacodynamic study, mouse H1975 subcutaneous xenograft tumor model; parameters: species or system BALB/c nude mice; conditions: intragastric once daily, day 28, H1975 xenograft
Procedure: In Vivo Pharmacodynamic Study—Mouse H1975 Subcutaneous Xenograft Tumor Model
as §1, with “5×10^6 H1975” for “5×10^6 PC9”, “cells carrying” for “cells with”, “EGFR T790M mutation.” for “EGFR Del19/T790M/C797S overexpression.”

[3] = target: Ba/F3 (EGFR^del19/T790M/C797S) triple-mutant cells (Homo sapiens, UniProt P00533, T790M/C797S, cells depend on it, form not given); experiment: Antiproliferative activity against Ba/F3 (EGFR del19/T790M/C797S) triple-mutant cells, Cell Titer Glow; assay type: cell-based; conditions: three days after addition of compounds; read-out: Antiproliferative activity BaF3(EGFR^del19/T790M/C797S) IC50
Summary of the method: as §2

EGFR (L858R/T790M/C797S) = EGFR (L858R/T790M/C797S) (Homo sapiens, UniProt P00533, C797S/L858R/T790M); experiment: HTRF inhibitory activity assay against EGFR (L858R/T790M/C797S) enzyme; assay type: biochemical; conditions: read-out: EGFR (L858R/T790M/C797S) inhibition (%) (0.3 nM compound)
Procedure: (§3) Inhibitory Activity Assay of the Compounds Disclosed Herein Against EGFR (del19/T790M/C797S), EGFR (L858R/T790M/C797S) or EGFR (WT) Enzymes
(§4) The inhibitory effects of the compounds against EGFR (del19/T790M/C797S), EGFR (L858R/T790M/C797S) or EGFR (WT) enzyme activity was determined by using HTRF. The procedures are as follows:
(§5) The WT or mutant EGFR proteins were incubated with a serially diluted compounds at 28° C. for 10 min followed by addition of biotin-labeled general tyrosine kinase (TK) substrate and ATP. The mixture was incubated at room temperature for 40 min for reaction. After the termination of the reaction, an Eu3+-Cryptate-labeled antibody against TK and streptavidin-XL665 were added and the mixture was incubated at room temperature for 60 min. The luminescences at 615 nm and 665 nm were detected and the ratio of 665/615 was calculated to quantify the level of TK substrate phosphorylation. Inhibition % and IC50 of the compounds were calculated relative to the control group.

EGFR (del19/T790M/C797S) = experiment: HTRF inhibitory activity assay against EGFR (del19/T790M/C797S) enzyme; assay type: biochemical
Summary of the method: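 Wild-type or mutant EGFR preincubated with serially diluted compound 10 min at 28 °C, then reacted 40 min at room temperature with biotinylated TK substrate and ATP. Phosphorylation detected by HTRF (Eu-cryptate anti-TK antibody, streptavidin-XL665, 60 min), 665/615 nm ratio; % inhibition and IC50 vs control.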

EGFR (WT) = EGFR (WT) (Homo sapiens, UniProt P00533); experiment: HTRF inhibitory activity assay against EGFR (WT) enzyme; assay type: biochemical
Procedure: as §3, §4, §5

Sequence of Ba/F3 (EGFR^del19/T790M/C797S) triple-mutant cells (P00533 with tags, fused parts or gaps DEL746-750/T790M/C797S, form open): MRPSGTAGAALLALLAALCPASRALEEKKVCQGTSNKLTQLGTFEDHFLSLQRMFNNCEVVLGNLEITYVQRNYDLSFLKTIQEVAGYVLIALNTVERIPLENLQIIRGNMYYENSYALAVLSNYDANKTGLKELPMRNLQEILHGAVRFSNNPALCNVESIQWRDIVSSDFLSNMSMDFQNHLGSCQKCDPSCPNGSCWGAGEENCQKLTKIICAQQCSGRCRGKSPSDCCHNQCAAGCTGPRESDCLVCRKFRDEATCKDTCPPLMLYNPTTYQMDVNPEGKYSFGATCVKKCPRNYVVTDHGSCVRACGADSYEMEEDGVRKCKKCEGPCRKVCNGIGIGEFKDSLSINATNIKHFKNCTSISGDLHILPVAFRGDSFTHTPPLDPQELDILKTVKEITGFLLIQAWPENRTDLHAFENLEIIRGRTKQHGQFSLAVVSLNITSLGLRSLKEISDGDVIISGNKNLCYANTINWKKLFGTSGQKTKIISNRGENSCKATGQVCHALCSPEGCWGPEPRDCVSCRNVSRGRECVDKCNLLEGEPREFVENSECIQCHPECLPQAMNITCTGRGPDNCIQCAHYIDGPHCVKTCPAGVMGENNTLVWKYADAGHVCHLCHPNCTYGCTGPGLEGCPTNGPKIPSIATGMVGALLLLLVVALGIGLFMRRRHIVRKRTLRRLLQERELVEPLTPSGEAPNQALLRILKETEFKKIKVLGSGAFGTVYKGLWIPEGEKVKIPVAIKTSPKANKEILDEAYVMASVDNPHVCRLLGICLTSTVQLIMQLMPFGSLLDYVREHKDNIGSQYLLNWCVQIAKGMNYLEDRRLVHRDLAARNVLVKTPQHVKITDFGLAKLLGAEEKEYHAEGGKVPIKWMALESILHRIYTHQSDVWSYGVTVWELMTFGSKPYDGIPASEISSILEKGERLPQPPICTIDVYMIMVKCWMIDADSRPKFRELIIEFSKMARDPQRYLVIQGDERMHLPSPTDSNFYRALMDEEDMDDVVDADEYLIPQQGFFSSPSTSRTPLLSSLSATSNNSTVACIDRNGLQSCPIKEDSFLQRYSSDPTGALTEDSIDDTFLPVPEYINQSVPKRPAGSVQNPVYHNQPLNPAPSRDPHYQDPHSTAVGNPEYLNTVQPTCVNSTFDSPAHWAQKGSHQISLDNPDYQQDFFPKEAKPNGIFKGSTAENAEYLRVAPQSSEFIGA
Sequence of EGFR (L858R/T790M/C797S) (P00533 25-1210 T790M/C797S/L858R): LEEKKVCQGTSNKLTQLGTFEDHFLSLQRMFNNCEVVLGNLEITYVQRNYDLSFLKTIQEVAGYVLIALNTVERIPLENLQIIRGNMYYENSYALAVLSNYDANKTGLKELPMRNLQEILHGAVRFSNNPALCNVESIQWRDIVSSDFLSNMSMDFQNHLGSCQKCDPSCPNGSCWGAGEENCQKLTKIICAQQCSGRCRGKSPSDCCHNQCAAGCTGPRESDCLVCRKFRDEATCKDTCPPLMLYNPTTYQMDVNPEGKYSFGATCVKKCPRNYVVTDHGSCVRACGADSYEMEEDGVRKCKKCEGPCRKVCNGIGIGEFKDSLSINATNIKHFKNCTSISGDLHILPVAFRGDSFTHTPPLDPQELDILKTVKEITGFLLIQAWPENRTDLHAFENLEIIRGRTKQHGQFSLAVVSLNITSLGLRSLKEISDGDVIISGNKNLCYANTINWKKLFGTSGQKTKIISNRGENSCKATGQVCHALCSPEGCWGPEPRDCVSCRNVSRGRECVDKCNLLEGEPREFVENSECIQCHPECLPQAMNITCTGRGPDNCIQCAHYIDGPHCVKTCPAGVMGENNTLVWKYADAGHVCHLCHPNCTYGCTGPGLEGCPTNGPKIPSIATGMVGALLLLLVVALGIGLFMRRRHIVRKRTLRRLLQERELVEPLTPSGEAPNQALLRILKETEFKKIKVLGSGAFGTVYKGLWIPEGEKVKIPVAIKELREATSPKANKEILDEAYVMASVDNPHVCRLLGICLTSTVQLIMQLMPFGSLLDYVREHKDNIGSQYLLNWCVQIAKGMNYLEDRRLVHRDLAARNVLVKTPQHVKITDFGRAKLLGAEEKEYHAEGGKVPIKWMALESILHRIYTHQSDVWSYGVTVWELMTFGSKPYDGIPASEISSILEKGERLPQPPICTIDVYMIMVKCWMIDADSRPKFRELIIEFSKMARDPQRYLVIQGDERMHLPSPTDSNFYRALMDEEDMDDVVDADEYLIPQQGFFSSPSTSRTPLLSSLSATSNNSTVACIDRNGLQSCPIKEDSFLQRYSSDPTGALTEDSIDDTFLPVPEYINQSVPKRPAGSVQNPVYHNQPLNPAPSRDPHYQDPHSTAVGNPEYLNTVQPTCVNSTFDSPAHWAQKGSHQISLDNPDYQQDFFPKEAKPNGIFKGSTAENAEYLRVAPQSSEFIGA
Sequence of EGFR (WT) (P00533 25-1210): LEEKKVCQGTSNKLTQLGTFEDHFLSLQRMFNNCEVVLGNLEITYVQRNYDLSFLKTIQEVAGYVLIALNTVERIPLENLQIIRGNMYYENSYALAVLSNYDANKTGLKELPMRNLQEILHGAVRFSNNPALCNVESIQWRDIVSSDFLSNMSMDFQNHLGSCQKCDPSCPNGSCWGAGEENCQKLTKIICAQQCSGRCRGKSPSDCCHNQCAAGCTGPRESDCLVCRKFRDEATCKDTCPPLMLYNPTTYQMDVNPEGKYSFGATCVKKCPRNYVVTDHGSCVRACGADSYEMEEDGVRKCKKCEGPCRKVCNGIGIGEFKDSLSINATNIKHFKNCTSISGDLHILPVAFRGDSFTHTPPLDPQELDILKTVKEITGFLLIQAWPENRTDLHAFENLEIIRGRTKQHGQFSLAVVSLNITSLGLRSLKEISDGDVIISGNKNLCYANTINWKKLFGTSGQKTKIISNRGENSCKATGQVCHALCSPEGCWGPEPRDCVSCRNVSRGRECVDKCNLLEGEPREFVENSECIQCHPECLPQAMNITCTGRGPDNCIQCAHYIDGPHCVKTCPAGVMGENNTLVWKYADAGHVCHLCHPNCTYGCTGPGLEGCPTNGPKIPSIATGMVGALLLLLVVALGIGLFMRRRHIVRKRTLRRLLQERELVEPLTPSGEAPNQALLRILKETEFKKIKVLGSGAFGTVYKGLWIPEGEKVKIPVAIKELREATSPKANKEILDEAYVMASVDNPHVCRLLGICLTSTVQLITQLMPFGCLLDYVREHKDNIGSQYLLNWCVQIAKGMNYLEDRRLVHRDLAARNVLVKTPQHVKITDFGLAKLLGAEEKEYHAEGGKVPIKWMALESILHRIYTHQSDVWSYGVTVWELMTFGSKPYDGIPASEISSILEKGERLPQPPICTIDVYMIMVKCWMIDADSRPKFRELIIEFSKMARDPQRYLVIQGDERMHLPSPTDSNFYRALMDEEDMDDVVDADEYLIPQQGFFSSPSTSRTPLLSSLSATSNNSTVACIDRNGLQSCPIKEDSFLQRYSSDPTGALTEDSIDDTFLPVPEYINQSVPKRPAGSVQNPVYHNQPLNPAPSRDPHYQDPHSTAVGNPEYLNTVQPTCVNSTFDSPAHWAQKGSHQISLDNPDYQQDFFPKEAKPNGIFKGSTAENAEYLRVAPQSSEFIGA

Row | IC50 (A431 (EGFR WT) cells) | GI50 [3] | inhibition at 0.0003 µM (EGFR (L858R/T790M/C797S)) | IC50 (EGFR (WT)) | Structure (SMILES) | TGI (tumor growth inhibition) ([1]; 60 mg/kg) | TGI (tumor growth inhibition) ([1]; 80 mg/kg) | TGI (tumor growth inhibition) ([2]; 60 mg/kg) | TGI (tumor growth inhibition) ([2]; 80 mg/kg) | EGFR (del19/T790M/C797S) inhibition (%) (0.3 nM compound) (EGFR (del19/T790M/C797S))
1 | 60 nM | 9 nM | > 50% | 2.82 nM | CN1CCN(C2CCN(c3ccc(Nc4nc(NC5CCOCC5)c(-c5cccc6[nH]ccc56)nc4C(N)=O)cc3)CC2)CC1 [compound 511, 6-(1H-indol-4-yl)-3-((4-(4-(4-methylpiperazin-1-yl)piperidin-1-yl)phenyl)amino)-5-((tetrahydro-2H-pyran-4-yl)amino)pyrazine-2-carboxamide] | 87.41% | 93.17% | 99% | 104% | +++ (+++ indicates an inhibition greater than 50%.)
2 | 30 nM | 2 nM | > 50% | 0.22 nM | CN1CCN(C2CCN(c3ccc(Nc4nc(NC5CC5)c(-c5cccc6[nH]ccc56)nc4C(N)=O)cc3)CC2)CC1 [compound 522] | – | – | – | – | +++ (+++ indicates an inhibition greater than 50%.)
3 | 100 nM | 5 nM | > 50% | 0.33 nM | CN1CCN(C2CCN(c3ccc(Nc4nc(N[C@H]5CC[C@H](O)CC5)c(-c5cccc6[nH]ccc56)nc4C(N)=O)cc3)CC2)CC1 [compound 526] | – | – | – | – | +++ (+++ indicates an inhibition greater than 50%.)
4 | 100 nM | 4 nM | > 50% | 1.7 nM | CN1CCN(C2CCN(c3ccc(Nc4nc(NC5CC6(COC6)C5)c(-c5cccc6[nH]ccc56)nc4C(N)=O)cc3)CC2)CC1 [compound 527] | – | – | – | – | +++ (+++ indicates an inhibition greater than 50%.)
